The source of these data is the Kinase Knowledgebase extract (Sharma et al. 2016).

The term IC50 denotes the point on the concentration scale where inhibition reaches its midpoint.

One experiment addresses PIK3CB (Human) (UniProt P42338). The experiment can be described thus: Assessment of PIK3CB Kinase Activity.
The next experiment concerns the target PIK3CA (human) (UniProt P42336). The experiment can be described thus: Assessment of PIK3CA Kinase Activity.
In a further experiment the target is PIK3CD (Human) (UniProt O00329). Put plainly: Assessment of PIK3CD Kinase Activity.
PIK3CD (Human), sequence (O00329 whole entry, looked up): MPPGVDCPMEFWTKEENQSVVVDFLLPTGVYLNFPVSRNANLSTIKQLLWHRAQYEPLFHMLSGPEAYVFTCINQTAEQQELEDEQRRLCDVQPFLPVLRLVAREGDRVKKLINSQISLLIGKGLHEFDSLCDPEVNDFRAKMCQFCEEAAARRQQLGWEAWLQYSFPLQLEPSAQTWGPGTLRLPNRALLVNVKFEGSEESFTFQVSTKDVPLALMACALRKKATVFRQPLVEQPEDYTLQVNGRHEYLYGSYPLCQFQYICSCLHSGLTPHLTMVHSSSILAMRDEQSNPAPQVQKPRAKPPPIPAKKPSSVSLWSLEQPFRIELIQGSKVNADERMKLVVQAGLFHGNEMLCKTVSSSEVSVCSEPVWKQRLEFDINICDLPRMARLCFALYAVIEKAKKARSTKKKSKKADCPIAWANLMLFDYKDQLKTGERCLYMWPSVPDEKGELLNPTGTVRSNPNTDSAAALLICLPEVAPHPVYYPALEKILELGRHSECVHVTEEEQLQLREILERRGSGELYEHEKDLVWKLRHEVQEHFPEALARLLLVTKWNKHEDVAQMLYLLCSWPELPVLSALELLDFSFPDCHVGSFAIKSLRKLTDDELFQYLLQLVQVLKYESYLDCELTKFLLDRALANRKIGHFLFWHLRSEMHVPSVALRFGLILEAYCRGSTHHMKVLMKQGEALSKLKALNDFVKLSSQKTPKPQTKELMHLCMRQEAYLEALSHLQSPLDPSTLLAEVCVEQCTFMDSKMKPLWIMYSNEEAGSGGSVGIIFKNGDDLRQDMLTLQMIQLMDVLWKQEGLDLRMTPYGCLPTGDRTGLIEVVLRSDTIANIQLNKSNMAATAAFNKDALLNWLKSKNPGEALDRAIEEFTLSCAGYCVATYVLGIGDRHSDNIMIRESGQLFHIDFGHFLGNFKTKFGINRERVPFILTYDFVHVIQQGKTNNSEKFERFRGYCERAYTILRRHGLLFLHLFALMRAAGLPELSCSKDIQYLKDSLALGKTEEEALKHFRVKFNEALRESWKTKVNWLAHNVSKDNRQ
The next experiment has as its target PIK3CG (human) (UniProt P48736). The experiment can be described thus: Assessment of PIK3CG Kinase Activity.

PIK3CB (Human), sequence (P42338 whole entry, looked up): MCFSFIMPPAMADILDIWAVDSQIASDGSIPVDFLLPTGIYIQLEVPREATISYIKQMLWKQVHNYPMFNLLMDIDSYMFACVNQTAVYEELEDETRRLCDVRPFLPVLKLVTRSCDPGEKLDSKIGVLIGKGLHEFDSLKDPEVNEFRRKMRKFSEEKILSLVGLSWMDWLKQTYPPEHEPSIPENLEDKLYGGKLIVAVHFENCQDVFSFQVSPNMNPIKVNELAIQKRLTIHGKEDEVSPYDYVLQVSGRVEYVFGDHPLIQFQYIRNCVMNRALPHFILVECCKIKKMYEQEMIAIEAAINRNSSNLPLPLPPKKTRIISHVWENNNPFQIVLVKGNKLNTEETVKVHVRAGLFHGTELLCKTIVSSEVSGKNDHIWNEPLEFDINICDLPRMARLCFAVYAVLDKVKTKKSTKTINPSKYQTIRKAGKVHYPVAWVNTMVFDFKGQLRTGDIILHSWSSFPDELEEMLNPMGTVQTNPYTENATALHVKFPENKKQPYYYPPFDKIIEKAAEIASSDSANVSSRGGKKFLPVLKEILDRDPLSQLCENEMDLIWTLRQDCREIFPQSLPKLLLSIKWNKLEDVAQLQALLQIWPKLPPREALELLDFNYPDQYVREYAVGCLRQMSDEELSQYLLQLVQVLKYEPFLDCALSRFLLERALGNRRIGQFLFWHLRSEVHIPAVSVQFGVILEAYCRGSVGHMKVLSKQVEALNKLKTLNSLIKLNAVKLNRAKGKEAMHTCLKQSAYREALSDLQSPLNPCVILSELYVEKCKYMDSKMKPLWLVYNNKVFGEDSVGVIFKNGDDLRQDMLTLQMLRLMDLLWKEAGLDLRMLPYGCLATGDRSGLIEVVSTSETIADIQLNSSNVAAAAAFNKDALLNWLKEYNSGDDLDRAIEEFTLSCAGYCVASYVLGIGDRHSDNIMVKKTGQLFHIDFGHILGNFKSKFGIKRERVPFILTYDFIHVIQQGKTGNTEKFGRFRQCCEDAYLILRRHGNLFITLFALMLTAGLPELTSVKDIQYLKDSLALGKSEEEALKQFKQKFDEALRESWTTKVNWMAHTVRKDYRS
PIK3CA (human), sequence (P42336 whole entry, looked up): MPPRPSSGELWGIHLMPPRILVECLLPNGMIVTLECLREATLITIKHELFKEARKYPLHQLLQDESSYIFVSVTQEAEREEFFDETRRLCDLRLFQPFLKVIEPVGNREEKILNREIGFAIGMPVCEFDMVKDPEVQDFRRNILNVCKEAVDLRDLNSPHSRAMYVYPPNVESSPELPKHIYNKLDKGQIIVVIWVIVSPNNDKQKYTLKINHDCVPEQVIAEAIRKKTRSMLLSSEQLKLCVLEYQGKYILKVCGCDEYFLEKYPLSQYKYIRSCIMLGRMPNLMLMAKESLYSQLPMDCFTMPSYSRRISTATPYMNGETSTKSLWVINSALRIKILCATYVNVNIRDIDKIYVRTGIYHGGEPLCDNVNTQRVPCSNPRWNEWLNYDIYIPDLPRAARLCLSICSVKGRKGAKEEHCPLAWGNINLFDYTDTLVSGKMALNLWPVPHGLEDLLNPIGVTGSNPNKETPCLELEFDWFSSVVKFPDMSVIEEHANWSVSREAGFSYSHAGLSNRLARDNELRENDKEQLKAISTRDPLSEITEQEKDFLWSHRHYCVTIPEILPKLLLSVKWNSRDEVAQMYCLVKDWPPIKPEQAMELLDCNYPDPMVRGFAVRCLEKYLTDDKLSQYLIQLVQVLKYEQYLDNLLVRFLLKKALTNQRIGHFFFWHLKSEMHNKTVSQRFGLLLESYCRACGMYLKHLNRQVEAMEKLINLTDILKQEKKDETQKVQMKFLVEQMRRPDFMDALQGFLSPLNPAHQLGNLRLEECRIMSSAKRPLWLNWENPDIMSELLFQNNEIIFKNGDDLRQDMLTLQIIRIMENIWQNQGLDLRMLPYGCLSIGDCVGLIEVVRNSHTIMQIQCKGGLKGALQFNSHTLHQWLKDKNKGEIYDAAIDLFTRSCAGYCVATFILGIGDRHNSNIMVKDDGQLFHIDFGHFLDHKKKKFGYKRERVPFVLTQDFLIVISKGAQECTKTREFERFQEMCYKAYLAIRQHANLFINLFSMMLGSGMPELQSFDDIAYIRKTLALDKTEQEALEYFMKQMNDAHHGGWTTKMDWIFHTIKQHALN
PIK3CG (human), sequence (P48736 whole entry, looked up): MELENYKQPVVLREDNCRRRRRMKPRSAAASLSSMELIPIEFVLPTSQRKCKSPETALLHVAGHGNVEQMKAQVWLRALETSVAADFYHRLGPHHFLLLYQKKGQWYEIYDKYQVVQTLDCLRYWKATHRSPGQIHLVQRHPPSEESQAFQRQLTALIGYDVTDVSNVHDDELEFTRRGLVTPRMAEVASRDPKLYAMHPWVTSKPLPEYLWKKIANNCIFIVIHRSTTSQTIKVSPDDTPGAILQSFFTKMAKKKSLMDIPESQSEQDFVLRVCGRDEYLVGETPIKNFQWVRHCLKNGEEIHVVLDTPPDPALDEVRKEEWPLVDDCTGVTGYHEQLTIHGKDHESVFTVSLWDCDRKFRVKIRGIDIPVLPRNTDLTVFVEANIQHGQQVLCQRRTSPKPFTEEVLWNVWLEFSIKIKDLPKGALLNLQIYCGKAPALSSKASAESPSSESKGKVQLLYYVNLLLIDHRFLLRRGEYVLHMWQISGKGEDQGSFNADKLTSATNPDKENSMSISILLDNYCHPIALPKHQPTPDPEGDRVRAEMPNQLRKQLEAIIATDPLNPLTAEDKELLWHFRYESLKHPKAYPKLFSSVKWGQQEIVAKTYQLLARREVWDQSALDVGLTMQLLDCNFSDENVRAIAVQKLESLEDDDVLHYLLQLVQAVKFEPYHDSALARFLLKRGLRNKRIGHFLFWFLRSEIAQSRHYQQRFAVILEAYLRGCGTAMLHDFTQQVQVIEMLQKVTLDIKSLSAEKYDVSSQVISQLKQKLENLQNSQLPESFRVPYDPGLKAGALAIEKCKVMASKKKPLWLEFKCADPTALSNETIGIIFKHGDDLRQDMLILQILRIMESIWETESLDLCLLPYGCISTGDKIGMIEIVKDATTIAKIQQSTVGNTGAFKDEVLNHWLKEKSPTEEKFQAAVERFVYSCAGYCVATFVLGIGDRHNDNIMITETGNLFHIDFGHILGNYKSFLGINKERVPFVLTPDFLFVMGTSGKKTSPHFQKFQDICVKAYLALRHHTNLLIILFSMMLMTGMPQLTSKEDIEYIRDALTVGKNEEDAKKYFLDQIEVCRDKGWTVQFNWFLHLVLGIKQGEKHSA

Take `O=C(NO)c1cnc(N(CCO)Cc2cc3nc(-c4cccc5[nH]ncc45)nc(N4CCOCC4)c3s2)nc1`: the 50% inhibitory concentration (IC50) on PIK3CB (Human) and against PIK3CA (human) was less than 100 nM in each case. `O=C(NO)c1cnc(NCc2cc3nc(-c4cccc5[nH]ncc45)nc(N4CCOCC4)c3s2)nc1`: the half-maximal inhibitory concentration (IC50) on PIK3CB (Human), against PIK3CD (Human), at PIK3CA (human) and against PIK3CG (human) was less than 100 nM throughout. Consider `CN(Cc1cc2nc(-c3cccc4[nH]ncc34)nc(N3CCOCC3)c2s1)c1ncc(C(=O)NO)cn1`, for which the IC50 against PIK3CB (Human), against PIK3CD (Human), against PIK3CA (human) and against PIK3CG (human) was less than 100 nM throughout.

On to `CN(CCCCC(=O)NO)Cc1cc2nc(-c3cccc4[nH]ncc34)nc(N3CCOCC3)c2s1`, for which, on PIK3CA (human), the IC50 is 100 to 1000 nM. The same measure, in the same setting: the value for `CN(Cc1cc2nc(-c3cccc4[nH]ncc34)nc(N3CCOCC3)c2s1)c1ncc(C=CC(=O)NO)cn1` was less than 100 nM; that for `CN(Cc1cc2nc(-c3ccc(N)cc3)nc(N3CCOCC3)c2s1)c1ncc(C(=O)NO)cn1` was less than 100 nM. On the same count and under the same terms, the value for `CN(Cc1cc2nc(-c3cc[nH]c3)nc(N3CCOCC3)c2s1)c1ncc(C(=O)NO)cn1` was less than 100 nM. `COCCN(CCOC)c1nc(-c2cccc3[nH]ncc23)nc2cc(CN(C)c3ncc(C(=O)NO)cn3)sc12` registered an IC50 on PIK3CA (human) of 100 to 1000 nM.

`CN(CCCCCC(=O)NO)Cc1cc2nc(-c3cccc4[nH]ncc34)nc(N3CCOCC3)c2s1` came in with an IC50 against PIK3CA (human) of 100 to 1000 nM. In turn, `Cc1ncc(-c2nc(N3CCOCC3)c3sc(CN(C)c4ncc(C(=O)NO)cn4)cc3n2)cn1` showed a half-maximal inhibitory concentration (IC50) against PIK3CA (human) of less than 100 nM. The same measure, in the same setting: the same measure for `CN(Cc1cc2nc(-c3ccc(O)cc3)nc(N3CCOCC3)c2s1)c1ncc(C(=O)NO)cn1`: 100 to 1000 nM; for `O=C(CCCCCCNc1cc2nc(-c3cccc4[nH]ncc34)nc(N3CCOCC3)c2s1)NO`: 100 to 1000 nM. As for `CN(Cc1cc2nc(-c3cccc(N)c3)nc(N3CCOCC3)c2s1)c1ncc(C(=O)NO)cn1`, on PIK3CA (human), the half-inhibitory concentration (IC50) was in the range of 100 to 1000 nM. Same read-out and setting: the same measure for `CS(=O)(=O)N1CCN(Cc2cc3nc(-c4cccc5nn(CCCCC(=O)NO)cc45)nc(N4CCOCC4)c3s2)CC1`: 100 to 1000 nM; for `N#CCCN(Cc1cc2nc(-c3cccc4[nH]ncc34)nc(N3CCOCC3)c2s1)c1ncc(C(=O)NO)cn1`: less than 100 nM. Same read-out and setting: the value for `CN(Cc1cc2nc(-c3cc(F)cc4[nH]ncc34)nc(N3CCOCC3)c2s1)c1ncc(C(=O)NO)cn1` was less than 100 nM; that for `CN(Cc1cc2nc(-c3cccc4[nH]ncc34)nc(N3CCOCC3)c2s1)CC1CCN(c2ncc(C(=O)NO)cn2)CC1` was less than 100 nM. In turn, `CCc1ncc(-c2nc(N3CCOCC3)c3sc(CN(C)c4ncc(C(=O)NO)cn4)cc3n2)cn1` registered a half-maximal inhibitory concentration (IC50) against PIK3CA (human) of less than 100 nM. Same read-out and setting: the same measure for `O=C(NO)c1ccc(CNCc2cc3nc(-c4cccc5[nH]ncc45)nc(N4CCOCC4)c3s2)cc1`: 100 to 1000 nM. Still for that read-out and setting: the same measure for `CC(c1cc2nc(-c3cccc4[nH]ncc34)nc(N3CCOCC3)c2s1)N(C)c1ncc(C(=O)NO)cn1` (stereo not given): less than 100 nM; for `CN(Cc1cc2nc(-c3ccc(C(N)=O)cc3)nc(N3CCOCC3)c2s1)c1ncc(C(=O)NO)cn1`: 100 to 1000 nM. Still for that read-out and setting: the value for `CN(Cc1cc2nc(-c3ccccc3CO)nc(N3CCOCC3)c2s1)c1ncc(C(=O)NO)cn1` was 100 to 1000 nM.

For `O=C(NO)c1cnc(N2CCN(Cc3cc4nc(-c5cccc6[nH]ncc56)nc(N5CCOCC5)c4s3)CC2)nc1`, the IC50 on PIK3CB (Human) is less than 100 nM; at PIK3CD (Human), 100 to 1000 nM; against PIK3CA (human), less than 100 nM; on PIK3CG (human), less than 100 nM.

Consider `COc1ccccc1Nc1nc(-c2cccc3[nH]ncc23)nc2cc(CN(C)c3ncc(C(=O)NO)cn3)sc12`, for which, on PIK3CA (human), the half-maximal inhibitory concentration (IC50) is 100 to 1000 nM. Same read-out and setting: the value for `CC(=O)Nc1ccc(-c2nc(N3CCOCC3)c3sc(CN(C)c4ncc(C(=O)NO)cn4)cc3n2)cc1` was less than 100 nM.
